What is called IC50 is the midpoint of a concentration-inhibition curve.

Sequence of Factor D (P00746 26-253): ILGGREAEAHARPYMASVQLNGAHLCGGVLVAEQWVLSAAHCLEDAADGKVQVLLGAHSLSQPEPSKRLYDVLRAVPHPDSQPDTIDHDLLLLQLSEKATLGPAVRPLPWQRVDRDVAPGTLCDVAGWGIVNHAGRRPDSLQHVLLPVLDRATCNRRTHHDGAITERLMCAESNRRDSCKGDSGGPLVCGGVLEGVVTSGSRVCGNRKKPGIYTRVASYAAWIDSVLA

This test concerns the target Factor D (Homo sapiens, UniProt P00746). The experiment in a line: Factor D esterolytic assay (Z-Lys-SBzl thioester substrate, DTNB, 405 nm). Format: biochemical. As to conditions: substrate Z-Lys-SBzl 1.29 mM, 100 mM HEPES, 500 mM NaCl, pH 7.5, 10% DMSO, tested a minimum of three times. The method, boiled down: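 Run in pH 7.5 HEPES (100 mM) with 500 mM NaCl and 10% DMSO, with compound preincubated at room temperature or not before adding 1.29 mM Z-Lys-SBzl. Free thiol released by Factor D reacts with DTNB, and rate is followed at 405 nm minus 690 nm over 600 s. IC50 derives from rate-based inhibition, minimum three replicates.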
For `Nc1ncnc2c1c1cc(C(F)(F)F)ccc1n2CC(=O)N1[C@@H]2C[C@@H]2C[C@H]1C(=O)Nc1cccc(Cl)n1` [Compound 267c, (1R,3S,5R)-2-(2-(4-amino-6-(trifluoromethyl)-9H-pyrimido[4,5-b]indol-9-yl)acetyl)-N-(6-chloropyridin-2-yl)-2-azabicyclo[3.1.0]hexane-3-carboxamide], the IC50 is less than 100 nM.

For the compound `C[C@H]1C[C@@H](C(=O)Nc2cccc(Br)n2)N(C(=O)Cn2c3ccc(C(F)(F)F)cc3c3c(N)ncnc32)C1` [Compound 208d, (2S,4S)-1-(2-(4-amino-6-(trifluoromethyl)-9H-pyrimido[4,5-b]indol-9-yl)acetyl)-N-(6-bromopyridin-2-yl)-4-methylpyrrolidine-2-carboxamide], the 50% inhibitory concentration (IC50) is less than 100 nM.

For the compound `Cc1ccc(-c2cc(C)c3c(c2)c2c(N)ncnc2n3CC(=O)N2[C@H](C(=O)Nc3cccc(Br)n3)C[C@@]3(C)C[C@@H]23)cc1` [Compound 255c, (1R,3S,5R)-2-(2-(4-amino-8-methyl-6-(p-tolyl)-9H-pyrimido[4,5-b]indol-9-yl)acetyl)-N-(6-bromopyridin-2-yl)-5-methyl-2-azabicyclo[3.1.0]hexane-3-carboxamide], the IC50 is less than 100 nM.

As for `Cc1cc(-c2ccoc2)cc2c3c(N)ncnc3n(CC(=O)N3[C@@H]4C[C@@H]4C[C@H]3C(=O)Nc3cccc(Br)n3)c12` [Compound 352c, (1R,3S,5R)-2-(2-(4-amino-6-(furan-3-yl)-8-methyl-9H-pyrimido[4,5-b]indol-9-yl)acetyl)-N-(6-bromopyridin-2-yl)-2-azabicyclo[3.1.0]hexane-3-carboxamide], the half-inhibitory concentration (IC50) was less than 100 nM.

For `C[C@@]1(F)C[C@@H](C(=O)Nc2cccc(Br)n2)N(C(=O)Cn2c3ccc(C(F)(F)F)cc3c3c(N)ncnc32)C1` [Compound 207b, (2S,4R)-1-(2-(4-amino-6-(trifluoromethyl)-9H-pyrimido[4,5-b]indol-9-yl)acetyl)-N-(6-bromopyridin-2-yl)-4-fluoro-4-methylpyrrolidine-2-carboxamide], the IC50 was less than 100 nM.

In the case of `Nc1ncnc2c1ncn2CC(=O)N1[C@@H]2C[C@@H]2C[C@H]1C(=O)Nc1cccc(OC(F)(F)F)c1` [Compound 107b, (1R,3S,5R)-2-(2-(6-amino-9H-purin-9-yl)acetyl)-N-(3-(trifluoromethoxy)phenyl)-2-azabicyclo[3.1.0]hexane-3-carboxamide], the 50% inhibitory concentration (IC50) is greater than 1000 nM.

As to `Cc1cc(F)c2c(c1)c1c(N)ncnc1n2CC(=O)N1[C@@H]2C[C@@H]2C[C@H]1C(=O)Nc1cccc(Br)n1` [Compound 391g, (1R,3S,5R)-2-(2-(4-amino-8-fluoro-6-methyl-9H-pyrimido[4,5-b]indol-9-yl)acetyl)-N-(6-bromopyridin-2-yl)-2-azabicyclo[3.1.0]hexane-3-carboxamide], the IC50 was less than 100 nM.

Take `Nc1ncnc2c1cnn2CC(=O)N1[C@@H]2C[C@@H]2C[C@H]1C(=O)Nc1cccc(Br)n1` [Compound 79a, (1R,3S,5R)-2-(2-(4-amino-1H-pyrazolo[3,4-d]pyrimidin-1-yl)acetyl)-N-(6-bromopyridin-2-yl)-2-azabicyclo[3.1.0]hexane-3-carboxamide]: the IC50 fell in the range of 100 to 1000 nM.

For the compound `CC1(C)C[C@@H](C(=O)Nc2cccc(Br)n2)N(C(=O)Cn2c3ccc(C(F)(F)F)cc3c3c(N)ncnc32)C1` [Compound 210d, (S)-1-(2-(4-amino-6-(trifluoromethyl)-9H-pyrimido[4,5-b]indol-9-yl)acetyl)-N-(6-bromopyridin-2-yl)-4,4-dimethylpyrrolidine-2-carboxamide], the IC50 was in the range of 100 to 1000 nM.

For the compound `Nc1nc(N)c2ncn(CC(=O)N3[C@@H]4C[C@@H]4C[C@H]3C(=O)Nc3cccc(Br)n3)c2n1` [Compound 92b, (1R,3S,5R)—N-(6-bromopyridin-2-yl)-2-(2-(2,6-diamino-9H-purin-9-yl)acetyl)-2-azabicyclo[3.1.0]hexane-3-carboxamide], the IC50 was greater than 1000 nM.

For `Cc1cc(C(F)(F)F)cc2c3c(N)ncnc3n(CC(=O)N3[C@@H]4C[C@@H]4C[C@H]3C(=O)Nc3cccc(Cl)n3)c12` [Compound 291a, (1R,3S,5R)-2-(2-(4-amino-8-methyl-6-(trifluoromethyl)-9H-pyrimido[4,5-b]indol-9-yl)acetyl)-N-(6-chloropyridin-2-yl)-2-azabicyclo[3.1.0]hexane-3-carboxamide], the IC50 was less than 100 nM.

`Cc1cc(C(F)(F)F)cc2c3c(N)ncnc3n(CC(=O)N3CCC[C@H]3C(=O)Nc3cccc(Br)n3)c12` [Compound 306a, (S)-1-(2-(4-amino-8-methyl-6-(trifluoromethyl)-9H-pyrimido[4,5-b]indol-9-yl)acetyl)-N-(6-bromopyridin-2-yl)pyrrolidine-2-carboxamide]: the IC50 was less than 100 nM.

As to `COc1cccc2c1c1c(N)ncnc1n2CC(=O)N1[C@H](C(=O)Nc2cccc(Br)n2)C[C@@]2(C)C[C@@H]12` [Compound 172a, (1R,3S,5R)-2-(2-(4-amino-5-methoxy-9H-pyrimido[4,5-b]indol-9-yl)acetyl)-N-(6-bromopyridin-2-yl)-5-methyl-2-azabicyclo[3.1.0]hexane-3-carboxamide], the IC50 is less than 100 nM.

Turning to `C[C@@]12C[C@@H](C(=O)Nc3cccc(Br)n3)N(C(=O)Cn3ccc4c(N)ncnc43)[C@@H]1C2` [Compound 73a, (1R,3S,5R)-2-(2-(4-amino-7H-pyrrolo[2,3-d]pyrimidin-7-yl)acetyl)-N-(6-bromopyridin-2-yl)-5-methyl-2-azabicyclo[3.1.0]hexane-3-carboxamide], the IC50 is less than 100 nM.

For the compound `NC[C@@H]1C[C@@H](C(=O)Nc2cccc(Br)n2)N(C(=O)Cn2c3ccc(C(F)(F)F)cc3c3c(N)ncnc32)C1` [Compound 211e, (2S,4S)-1-(2-(4-amino-6-(trifluoromethyl)-9H-pyrimido[4,5-b]indol-9-yl)acetyl)-4-(aminomethyl)-N-(6-bromopyridin-2-yl)pyrrolidine-2-carboxamide], the IC50 was in the range of 100 to 1000 nM.

With `Cc1cc(-c2ccccc2)cc2c3c(N)ncnc3n(CC(=O)N3[C@H](C(=O)Nc4cccc(Br)n4)C[C@@]4(C)C[C@@H]34)c12` [Compound 230a, (1R,3S,5R)-2-(2-(4-amino-8-methyl-6-phenyl-9H-pyrimido[4,5-b]indol-9-yl)acetyl)-N-(6-bromopyridin-2-yl)-5-methyl-2-azabicyclo[3.1.0]hexane-3-carboxamide], the IC50 is less than 100 nM.

On to `Cc1cc(F)c(Br)nc1NC(=O)[C@@H]1C[C@@H](F)CN1C(=O)Cn1c2ncnc(N)c2c2cc(C(F)(F)F)cc(C)c21` [Compound 366c, (2S,4R)-1-(2-(4-amino-8-methyl-6-(trifluoromethyl)-9H-pyrimido[4,5-b]indol-9-yl)acetyl)-N-(6-bromo-5-fluoro-3-methylpyridin-2-yl)-4-fluoropyrrolidine-2-carboxamide], for which the IC50 is less than 100 nM.

`C[C@@]1(F)C[C@@H](C(=O)NCc2cccc(Cl)c2F)N(C(=O)Cn2cnc3c(N)ncnc32)C1` [Compound 122c, (2S,4R)-1-(2-(6-amino-9H-purin-9-yl)acetyl)-N-(3-chloro-2-fluorobenzyl)-4-fluoro-4-methylpyrrolidine-2-carboxamide]: the IC50 was 100 to 1000 nM.

Regarding `Nc1ncnc2c1cc1n2C(C(=O)N2[C@@H](C(=O)Nc3cccc(Br)n3)C[C@@H]3C[C@@H]32)Oc2ccccc2-1` (stereo partly drawn) [Compound 233h, (1S,3R,5S)-2-(11-amino-6H-benzo[e]pyrimido[5′,4′:4,5]pyrrolo[1,2-c][,3]oxazine-6-carbonyl)-N-(6-bromopyridin-2-yl)-2-azabicyclo[3.1.0]hexane-3-carboxamide], the 50% inhibitory concentration (IC50) is less than 100 nM.

Turning to `Cc1ccc(Br)nc1NC(=O)[C@@H]1C[C@@H](F)CN1C(=O)Cn1c2ccccc2c2c(N)ncnc21` [Compound 3b, (2S,4R)-1-(2-(4-amino-9H-pyrimido[4,5-b]indol-9-yl)acetyl)-N-(6-bromo-3-methylpyridin-2-yl)-4-fluoropyrrolidine-2-carboxamide], the IC50 is less than 100 nM.

In the case of `COc1cc2c(cc1Br)c1c(N)ncnc1n2CC(=O)N1[C@H](C(=O)Nc2cccc(Br)n2)C[C@@]2(C)C[C@@H]12` [Compound 375a, (1R,3S,5R)-2-(2-(4-amino-6-bromo-7-methoxy-9H-pyrimido[4,5-b]indol-9-yl)acetyl)-N-(6-bromopyridin-2-yl)-5-methyl-2-azabicyclo[3.1.0]hexane-3-carboxamide], the IC50 is less than 100 nM.

`C[C@@]12C[C@@H](C(=O)Nc3cccc(Br)n3)N(C(=O)Cn3c4ccc(Br)nc4c4c(N)ncnc43)[C@@H]1C2` [Compound 292a, (1R,3S,5R)-2-(2-(4-amino-6-bromo-9H-pyrido[2′,3′:4,5]pyrrolo[2,3-d]pyrimidin-9-yl)acetyl)-N-(6-bromopyridin-2-yl)-5-methyl-2-azabicyclo[3.1.0]hexane-3-carboxamide]: the 50% inhibitory concentration (IC50) was less than 100 nM.

In the case of `C[C@@]12C[C@@H](C(=O)Nc3cccc(Br)n3)N(C(=O)Cn3c4ccc(-c5ccccc5)cc4c4c(N)ncnc43)[C@@H]1C2` [Compound 270a, (1R,3S,5R)-2-(2-(4-amino-6-phenyl-9H-pyrimido[4,5-b]indol-9-yl)acetyl)-N-(6-bromopyridin-2-yl)-5-methyl-2-azabicyclo[3.1.0]hexane-3-carboxamide], the IC50 was less than 100 nM.

Consider `COc1cc(Cl)cc2c3c(N)ncnc3n(CC(=O)N3[C@@H]4C[C@@H]4C[C@H]3C(=O)Nc3cccc(Br)n3)c12` [Compound 238g, (1R,3S,5R)-2-(2-(4-amino-6-chloro-8-methoxy-9H-pyrimido[4,5-b]indol-9-yl)acetyl)-N-(6-bromopyridin-2-yl)-2-azabicyclo[3.1.0]hexane-3-carboxamide], for which the IC50 is less than 100 nM.

Regarding `Nc1ncnc2c1c1c(F)cccc1n2CC(=O)N1[C@@H]2C[C@@H]2C[C@H]1C(=O)Nc1cccc(Br)n1` [Compound 50f, (1R,3S,5R)-2-(2-(4-amino-5-fluoro-9H-pyrimido[4,5-b]indol-9-yl)acetyl)-N-(6-bromopyridin-2-yl)-2-azabicyclo[3.1.0]hexane-3-carboxamide], the IC50 lay within 100 to 1000 nM.
